The record followed here is patent publication US20230000808A1, “COMPOSITIONS AND METHODS EXCLUDING OR WITH REDUCED GLUTAMINE FOR THE TREATMENT OF HEMOGLOBINOPATHIES AND THALASSEMIAS” (AXCELLA HEALTH INC., priority 2019, published 2023).

The test system of one assay is IL-6. The assay is described as follows: Secreted IL-6 in HLMVEC treated with TNF-α (FirePlex). Format: cell-based, human. The essentials: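 Primary human lung microvascular endothelial cells, after overnight attachment, were switched to medium with amino acid levels mimicking SCD patient blood, plus 0.5 ng/mL TNF-α with or without amino acid treatments at 20× mean physiological plasma concentrations. Supernatant IL-6 measured by FirePlex immunoassay, interpolated from a standard curve.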

In a further assay the test system is ICAM-1. The assay is described as follows: ICAM-1 cell integrated intensity in HLMVEC treated with TNF-α (immunofluorescence). The format is cell-based, human. To be noted: for TNFα induced ICAM-1 expression levels in HLMVEC: 0.5 ng/mL TNF-α, amino acids at 20× HMDB, 24 hours. The essentials: (§1)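 Primary human lung microvascular endothelial cells, 24 h in medium with SCD-like amino acid profile plus 0.5 ng/mL TNF-α, with or without amino acids at 20× mean plasma level. Fixed, immunostained for ICAM-1 and VCAM-1; integrated intensity per cell by high-content imaging.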

The next assay has as its system VCAM-1. Kind of assay: VCAM-1 cell integrated intensity in HLMVEC treated with TNF-α (immunofluorescence). Format: cell-based, human. To be noted: for VCAM-1 expression in HLMVEC: 0.5 ng/mL TNF-α, amino acids at 20× HMDB, 24 hours. The essentials:
as §1

The test system of another assay is TNFα. Kind of assay: LPS-induced TNF-α secretion in primary human monocyte-derived macrophages (ELISA). Format: cell-based. To be noted: for TNF-α Measurements Mean: baseline subtracted; for effect on LPS-induced TNF-α secretion: Two Way ANOVA Dunnett. On the procedure: Primary human PMBC derived macrophages were seeded on day 0 at 3.0×10^4 cells per well in 96-well microplates (ThermoFisher) in Dulbecco's Modified Eagle Medium (DMEM) (Gibco) supplemented with penicillin-streptomycin (Hyclone) and 10% heat inactivated fetal bovine serum (HI-FBS) (Atlanta Bio) and incubated overnight at 37° C., 5% CO2. On day 1, cells were washed once with 150 μl per well DPBS (Gibco) and treated with 75 μl of: • a. […] The same medium described above with one amino acid at various concentrations including complete dropout. […] On day 3, the supernatant was collected and immediately frozen in −80° C. freezer. Cells were washed once with 150 μl DPBS and viability was assessed using the WST-8 Cell Proliferation Cytotoxicity Assay (Dojindo). […] Protein levels in supernatant samples were analyzed by ELISA for IL-6 and TNFα using commercially available kits (R&D Systems) according to manufacturer-supplied protocols.
On the technique in general: ELISA stands for enzyme-linked immunosorbent assay.

[1] abbreviates: HLMVEC + 0.5 ng/mL TNF-α, 24 h, amino acids 20x HMDB, Nac/Cit/Car 5 mM as bracketed.

For `CC(=O)N[C@@H](CS)C(=O)O` [N-Acetyl Cysteine, N-acetylcysteine], in the assay on IL-6 (setting [1]), the “Secreted IL6 Median” value is recorded as −0.497. The “TNFα induced ICAM-1 expression levels in HLMVEC” value in the assay on ICAM-1 was “reduced levels of ICAM-1 expression to a lesser extent”. Further, the “ICAM-1 Cell Integrated Intensity Median” value in the assay on ICAM-1 (setting [1]) is reported as −0.222. Also, the “VCAM-1 expression in HLMVEC” value in the assay on VCAM-1 is listed as “greatly reduced”. Moreover, the “VCAM-1 Cell Integrated Intensity Median” value in the assay on VCAM-1 (setting [1]) was −0.315. Besides, the “TNF-α Measurements Mean” value is −326.24 in the assay with TNFα (Donor 1, Conc. 5 X, LPS 0.15 ng/mL); −446.88 with TNFα (Donor 1, Conc. 10 X, LPS 0.15 ng/mL); −561.33 with TNFα (Donor 1, Conc. 20 X, LPS 0.15 ng/mL); −644.49 in the assay with TNFα (Donor 1, Conc. 40 X, LPS 0.15 ng/mL); −54.1596 in the assay on TNFα (Donor 2, Conc. 5 X, LPS 0.15 ng/mL); −70.8382 in the assay on TNFα (Donor 2, Conc. 10 X, LPS 0.15 ng/mL). Besides, the “TNF-α Measurements Mean” value in the assay with TNFα (Donor 2, Conc. 20 X, LPS 0.15 ng/mL) was −88.6528; in the assay on TNFα (Donor 2, Conc. 40 X, LPS 0.15 ng/mL) it was −103.984; in the assay with TNFα (Donor 3, Conc. 5 X, LPS 0.15 ng/mL), −33.6246; with TNFα (Donor 3, Conc. 10 X, LPS 0.15 ng/mL) it was −41.7266; with TNFα (Donor 3, Conc. 20 X, LPS 0.15 ng/mL) it was −48.4373; in the assay with TNFα (Donor 3, Conc. 40 X, LPS 0.15 ng/mL) it was −55.3093. In addition, the “effect on LPS-induced TNF-α secretion” value in the assay on TNFα (Donor 1), in the assay on TNFα (Donor 2) and in the assay on TNFα (Donor 3) was “significantly reduced” each time.

As to `NC(=O)CC[C@H](N)C(=O)O` [Glutamine, L-glutamine], the “IL-6 secretion from TNFα treated HLMVEC” value with IL-6 (0.5 ng/mL TNF-α, amino acids at 20× HMDB, 24 hours) is “increased”. For the same compound, the “TNFα induced ICAM-1 expression levels in HLMVEC” value in the assay on ICAM-1 is “increased”. In addition, in the assay with VCAM-1, the “VCAM-1 expression in HLMVEC” value is on record as “increased”. Moreover, the “TNF-α Measurements Mean” value with TNFα (Donor 1, Conc. 749 μM (baseline), LPS) is listed as 0; in the assay on TNFα (Donor 1, Conc. 3747 μM, LPS), −45.7; with TNFα (Donor 1, Conc. 11242 μM, LPS), −65.24; in the assay with TNFα (Donor 1, Conc. 22484 μM, LPS), −103.07; with TNFα (Donor 2, Conc. 749 μM (baseline), LPS), −9.5E−15; in the assay with TNFα (Donor 2, Conc. 3747 μM, LPS) it was 9.338. Also, the “TNF-α Measurements Mean” value is 20.04 with TNFα (Donor 2, Conc. 11242 μM, LPS); 11.5 in the assay with TNFα (Donor 2, Conc. 22484 μM, LPS); 0 with TNFα (Donor 3, Conc. 749 μM (baseline), LPS); 1.936 with TNFα (Donor 3, Conc. 3747 μM, LPS); 18 with TNFα (Donor 3, Conc. 11242 μM, LPS); 29.14 in the assay on TNFα (Donor 3, Conc. 22484 μM, LPS). The “effect on LPS-induced TNF-α secretion” value with TNFα (Donor 2) and with TNFα (Donor 3) was “increased” each time.
